From US20240327364A1, “THERAPEUTIC TARGETING OF GPR68 TO INDUCE FERROPTOSIS” (University Of Maryland, Baltimore, priority 2023, published 2024)
Marks after values point to notes of the source that are not given here.

Experiments:
[1] = tested on: U87 glioblastoma spheroids; test: Matrigel matrix invasion of spheroids; assay type: cell-based
Excerpt: U87 glioblastoma spheroids were formed in low attachment round bottom plates for 3 days. Spheroids were then covered in Matrigel™, which was allowed to polymerize before treatment with acidified media with or without OGM2. Acidification increased the degree of matrix invasion which is attenuated by OGM2.

[2] = tested on: patient derived GBM lines; test: qPCR of ferroptosis markers; assay type: cell-based, human; details: 3 days
Excerpt: cDNAs were generated using High-Capacity cDNA Reverse Transcription Kit with RNase Inhibitor (ThermoFisher, […]). Samples were run on a Quant Studio 5 real-time PCR system (Applied Biosystems™) with TaqMan™ Universal Master Mix II, with UNG (ThermoFisher, 4440042). Primers used were GAPDH: Hs02786624g1, GPR68: Hs00268858s1, ATF4: Hs00909569_g1, CHAC1: Hs00225520_m1, SLC7A11: Hs00921938_m1, HMOX1: Hs01110250_m1, TFRC: Hs00951083_m1.
Separate biological replicates of pdx and neurosphere cells treated with OGM for 3 days were generated. RNA was isolated, cDNA generated and qPCR was conducted on select key markers of ferroptosis (ATF4. CHAC1, HMOX1, TFRC, and SLC7A11) that were seen as dysregulated in RNAseq.

PRKCH = target: T1, PRKCH (Homo sapiens, UniProt P24723); test: KinomeScan; assay type: binding; details: read-out: % Control
T1 construct: purchased DiscoveRx (Fremont, CA)

PLK3 = target: T2, PLK3 (Homo sapiens, UniProt Q9H4B4); test: KinomeScan; assay type: binding; details: read-out: % Control
T2 construct: purchased DiscoveRx (Fremont, CA)

MEK1 = target: T3, MEK1 (Homo sapiens, UniProt Q02750); test: KinomeScan; assay type: binding; details: read-out: % Control
T3 construct: purchased DiscoveRx (Fremont, CA)

RIPK1 = target: T4, RIPK1 (Homo sapiens, UniProt Q13546); test: KinomeScan; assay type: binding; details: read-out: % Control
T4 construct: purchased DiscoveRx (Fremont, CA)

GPR14 = target: T5, GPR14 (Homo sapiens, UniProt Q9UKP6); test: GPCR Profiler; assay type: cell-based; details: 12.5 uM
T5 construct: host or cells: Chem-1 cells expressing Gα15

S6K1 = target: T6, S6K1 (Homo sapiens, UniProt P23443); test: KinomeScan; assay type: binding; details: read-out: % Control
T6 construct: purchased DiscoveRx (Fremont, CA)

GCN2(Kin.Dom.2, S808G) = target: T7, GCN2(Kin.Dom.2, S808G) (Homo sapiens, UniProt Q9P2K8, S808G); test: KinomeScan; assay type: binding; details: read-out: % Control
T7 construct: GCN2(Kin.Dom.2, S808G); purchased DiscoveRx (Fremont, CA)

CDK7 = target: T8, CDK7 (Homo sapiens, UniProt P50613); test: KinomeScan; assay type: binding; details: read-out: % Control
T8 construct: purchased DiscoveRx (KinomeScan service)

FGR = target: T9, FGR (Homo sapiens, UniProt P09769); test: KinomeScan; assay type: binding; details: read-out: % Control
T9 construct: purchased DiscoveRx (Fremont, CA)

XCR1 = target: T10, XCR1 (Homo sapiens, UniProt P46094); test: GPCR Profiler; assay type: cell-based
T10 construct: host or cells: Chem-1 cells expressing Galpha15

TXK = target: T11, TXK (Homo sapiens, UniProt P42681); test: KinomeScan; assay type: binding; details: read-out: % Control
T11 construct: purchased DiscoveRx

A1 = target: T12, A1 (Homo sapiens, UniProt P30542); test: GPCR Profiler; assay type: cell-based
T12 construct: host or cells: Chem-1 cells with promiscuous Gα15

OPRD1 = target: T13, OPRD1 (Homo sapiens, UniProt P41143); test: GPCR Profiler; assay type: cell-based
T13 construct: host or cells: Chem-1 cells expressing Gα15

CDK9 = CDK9 (Homo sapiens, UniProt P50750); test: KinomeScan; assay type: binding; details: read-out: % Control
FPR2 = target: T14, FPR2 (Homo sapiens, UniProt P25090); test: GPCR Profiler; assay type: cell-based
T14 construct: host or cells: Chem-1 cells expressing Gα15

[3] = target: T15, ABL1(Y253F)-phosphorylated (Homo sapiens, UniProt P00519, Y253F); test: KinomeScan; assay type: binding; details: read-out: % Control
T15 construct: purchased DiscoveRx

PK1 = target: T16, PK1 (Homo sapiens, UniProt Q8TCW9); test: GPCR Profiler; assay type: cell-based
T16 construct: host or cells: Chem-1 cells with Gα15

ADRA2A = target: T17, ADRA2A (Homo sapiens, UniProt P08913); test: GPCR Profiler; assay type: cell-based
T17 construct: host or cells: Chem-1 cells with promiscuous Gα15

ADRA1B = target: T18, ADRA1B (Homo sapiens, UniProt P35368); test: GPCR Profiler; assay type: cell-based
T18 construct: host or cells: Chem-1 cells with promiscuous Gα15

PFPK5(P. falciparum) = target: T19, PFPK5(P. falciparum) (Plasmodium falciparum, UniProt P61075); test: KinomeScan; assay type: binding; details: read-out: % Control
T19 construct: purchased DiscoveRx (Fremont, CA)

BRAF = target: T20, BRAF (Homo sapiens, UniProt P15056); test: KinomeScan; assay type: binding; details: read-out: % Control
T20 construct: purchased DiscoveRx (Fremont, CA)

EPHB6 = target: T21, EPHB6 (Homo sapiens, UniProt O15197); test: KinomeScan; assay type: binding; details: read-out: % Control
T21 construct: purchased DiscoveRx (Fremont, CA)

YANK2 = target: T22, YANK2 (Homo sapiens, UniProt Q9NY57); test: KinomeScan; assay type: binding; details: read-out: % Control
T22 construct: purchased DiscoveRx

T10 sequence (P46094 whole entry, species assumed): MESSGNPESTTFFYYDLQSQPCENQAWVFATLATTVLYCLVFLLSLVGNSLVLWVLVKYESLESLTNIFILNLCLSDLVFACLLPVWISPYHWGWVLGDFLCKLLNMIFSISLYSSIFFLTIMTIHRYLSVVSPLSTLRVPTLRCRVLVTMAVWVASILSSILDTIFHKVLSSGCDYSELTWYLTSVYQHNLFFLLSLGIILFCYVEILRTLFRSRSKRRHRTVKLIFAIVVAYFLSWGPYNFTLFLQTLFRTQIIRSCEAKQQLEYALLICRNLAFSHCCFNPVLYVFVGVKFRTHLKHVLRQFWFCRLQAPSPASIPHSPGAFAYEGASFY
T17 sequence (P08913 whole entry, species assumed): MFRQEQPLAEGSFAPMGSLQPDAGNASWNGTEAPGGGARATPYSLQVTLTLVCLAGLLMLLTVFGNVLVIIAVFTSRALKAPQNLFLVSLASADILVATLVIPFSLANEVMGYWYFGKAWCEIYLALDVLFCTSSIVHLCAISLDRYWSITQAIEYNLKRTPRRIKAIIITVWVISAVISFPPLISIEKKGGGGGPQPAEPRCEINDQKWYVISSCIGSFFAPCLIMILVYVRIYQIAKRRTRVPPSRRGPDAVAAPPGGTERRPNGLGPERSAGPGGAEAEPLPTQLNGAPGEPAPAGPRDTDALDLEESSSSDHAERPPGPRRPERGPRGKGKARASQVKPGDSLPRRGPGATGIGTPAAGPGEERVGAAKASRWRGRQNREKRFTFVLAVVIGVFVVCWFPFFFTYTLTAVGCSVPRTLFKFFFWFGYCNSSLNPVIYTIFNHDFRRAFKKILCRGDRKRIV
T13 sequence (P41143 whole entry, species assumed): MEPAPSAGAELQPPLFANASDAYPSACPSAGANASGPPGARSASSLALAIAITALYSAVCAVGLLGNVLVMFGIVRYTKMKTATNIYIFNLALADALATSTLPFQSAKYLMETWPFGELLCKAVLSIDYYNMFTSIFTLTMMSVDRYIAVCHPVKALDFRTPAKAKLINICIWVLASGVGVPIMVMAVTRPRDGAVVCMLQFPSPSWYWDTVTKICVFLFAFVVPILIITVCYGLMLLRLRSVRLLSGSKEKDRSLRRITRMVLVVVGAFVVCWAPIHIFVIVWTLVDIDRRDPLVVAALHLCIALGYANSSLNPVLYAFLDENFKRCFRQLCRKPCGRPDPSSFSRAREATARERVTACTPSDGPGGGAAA
T12 sequence (P30542 whole entry): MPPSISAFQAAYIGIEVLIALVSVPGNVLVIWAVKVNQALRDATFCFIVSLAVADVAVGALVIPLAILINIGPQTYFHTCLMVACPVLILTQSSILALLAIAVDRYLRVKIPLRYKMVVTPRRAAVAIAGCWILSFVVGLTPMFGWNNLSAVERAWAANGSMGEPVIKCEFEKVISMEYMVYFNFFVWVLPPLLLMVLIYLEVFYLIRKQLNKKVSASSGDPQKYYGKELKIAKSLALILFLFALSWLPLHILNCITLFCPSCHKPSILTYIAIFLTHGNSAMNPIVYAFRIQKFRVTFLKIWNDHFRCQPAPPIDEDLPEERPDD
T14 sequence (P25090 whole entry): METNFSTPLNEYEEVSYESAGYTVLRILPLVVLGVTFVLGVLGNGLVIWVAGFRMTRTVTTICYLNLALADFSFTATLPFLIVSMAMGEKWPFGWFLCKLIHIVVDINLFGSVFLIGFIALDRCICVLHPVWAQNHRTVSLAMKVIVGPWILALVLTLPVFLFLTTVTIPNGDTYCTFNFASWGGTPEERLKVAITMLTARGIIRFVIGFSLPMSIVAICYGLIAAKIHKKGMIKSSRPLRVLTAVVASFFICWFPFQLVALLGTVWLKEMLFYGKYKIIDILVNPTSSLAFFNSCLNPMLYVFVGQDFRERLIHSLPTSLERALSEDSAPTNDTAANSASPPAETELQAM
T18 sequence (P35368 whole entry, species assumed): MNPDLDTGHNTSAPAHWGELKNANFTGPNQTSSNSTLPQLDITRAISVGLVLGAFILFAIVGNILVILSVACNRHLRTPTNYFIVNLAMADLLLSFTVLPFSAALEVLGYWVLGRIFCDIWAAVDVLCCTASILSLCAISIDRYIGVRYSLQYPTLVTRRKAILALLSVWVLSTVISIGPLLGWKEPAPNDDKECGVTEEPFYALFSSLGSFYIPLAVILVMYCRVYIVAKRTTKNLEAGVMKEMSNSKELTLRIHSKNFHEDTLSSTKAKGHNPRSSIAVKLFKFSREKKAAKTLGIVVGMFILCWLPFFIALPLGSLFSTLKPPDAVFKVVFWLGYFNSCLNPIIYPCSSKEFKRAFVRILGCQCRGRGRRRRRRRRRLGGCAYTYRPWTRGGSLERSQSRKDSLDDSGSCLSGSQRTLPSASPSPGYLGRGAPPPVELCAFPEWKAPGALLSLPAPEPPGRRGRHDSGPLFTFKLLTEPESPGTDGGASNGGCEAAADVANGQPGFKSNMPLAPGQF
T16 sequence (Q8TCW9 whole entry): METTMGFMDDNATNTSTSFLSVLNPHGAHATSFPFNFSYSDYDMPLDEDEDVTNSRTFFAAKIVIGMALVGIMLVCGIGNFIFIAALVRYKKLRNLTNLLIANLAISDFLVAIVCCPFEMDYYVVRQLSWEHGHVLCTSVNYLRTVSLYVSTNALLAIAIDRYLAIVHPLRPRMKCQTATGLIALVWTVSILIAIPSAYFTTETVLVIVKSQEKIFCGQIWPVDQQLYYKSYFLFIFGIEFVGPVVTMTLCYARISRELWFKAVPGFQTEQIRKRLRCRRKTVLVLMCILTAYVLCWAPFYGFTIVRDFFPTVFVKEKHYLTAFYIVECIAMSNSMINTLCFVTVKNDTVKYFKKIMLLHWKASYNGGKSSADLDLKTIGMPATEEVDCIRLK
T21 sequence (O15197 32-1021): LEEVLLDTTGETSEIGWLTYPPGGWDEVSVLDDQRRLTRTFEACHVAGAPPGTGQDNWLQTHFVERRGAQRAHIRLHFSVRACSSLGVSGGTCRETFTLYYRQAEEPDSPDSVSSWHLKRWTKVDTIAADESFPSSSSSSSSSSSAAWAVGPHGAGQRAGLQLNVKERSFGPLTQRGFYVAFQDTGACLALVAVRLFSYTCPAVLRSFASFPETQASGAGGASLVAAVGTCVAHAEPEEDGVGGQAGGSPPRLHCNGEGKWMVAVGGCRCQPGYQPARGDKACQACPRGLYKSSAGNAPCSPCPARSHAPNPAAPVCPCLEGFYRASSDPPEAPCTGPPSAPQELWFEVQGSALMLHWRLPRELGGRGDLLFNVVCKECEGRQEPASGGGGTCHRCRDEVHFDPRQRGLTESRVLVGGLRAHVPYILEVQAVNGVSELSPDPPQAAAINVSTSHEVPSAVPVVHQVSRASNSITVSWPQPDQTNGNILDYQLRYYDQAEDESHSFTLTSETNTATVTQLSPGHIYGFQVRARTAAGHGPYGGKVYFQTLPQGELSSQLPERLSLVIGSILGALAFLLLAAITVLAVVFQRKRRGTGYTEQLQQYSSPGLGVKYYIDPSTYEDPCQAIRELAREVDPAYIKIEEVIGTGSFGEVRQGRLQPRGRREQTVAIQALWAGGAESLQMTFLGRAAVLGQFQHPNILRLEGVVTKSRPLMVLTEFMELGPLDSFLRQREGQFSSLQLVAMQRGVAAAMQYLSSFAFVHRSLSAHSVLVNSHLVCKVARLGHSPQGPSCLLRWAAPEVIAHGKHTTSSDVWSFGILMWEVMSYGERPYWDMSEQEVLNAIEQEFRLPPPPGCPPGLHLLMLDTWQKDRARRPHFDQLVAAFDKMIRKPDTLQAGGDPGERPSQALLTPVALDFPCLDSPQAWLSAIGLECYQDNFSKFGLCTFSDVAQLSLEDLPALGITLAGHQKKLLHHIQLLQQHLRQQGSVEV
T20 sequence (P15056 whole entry): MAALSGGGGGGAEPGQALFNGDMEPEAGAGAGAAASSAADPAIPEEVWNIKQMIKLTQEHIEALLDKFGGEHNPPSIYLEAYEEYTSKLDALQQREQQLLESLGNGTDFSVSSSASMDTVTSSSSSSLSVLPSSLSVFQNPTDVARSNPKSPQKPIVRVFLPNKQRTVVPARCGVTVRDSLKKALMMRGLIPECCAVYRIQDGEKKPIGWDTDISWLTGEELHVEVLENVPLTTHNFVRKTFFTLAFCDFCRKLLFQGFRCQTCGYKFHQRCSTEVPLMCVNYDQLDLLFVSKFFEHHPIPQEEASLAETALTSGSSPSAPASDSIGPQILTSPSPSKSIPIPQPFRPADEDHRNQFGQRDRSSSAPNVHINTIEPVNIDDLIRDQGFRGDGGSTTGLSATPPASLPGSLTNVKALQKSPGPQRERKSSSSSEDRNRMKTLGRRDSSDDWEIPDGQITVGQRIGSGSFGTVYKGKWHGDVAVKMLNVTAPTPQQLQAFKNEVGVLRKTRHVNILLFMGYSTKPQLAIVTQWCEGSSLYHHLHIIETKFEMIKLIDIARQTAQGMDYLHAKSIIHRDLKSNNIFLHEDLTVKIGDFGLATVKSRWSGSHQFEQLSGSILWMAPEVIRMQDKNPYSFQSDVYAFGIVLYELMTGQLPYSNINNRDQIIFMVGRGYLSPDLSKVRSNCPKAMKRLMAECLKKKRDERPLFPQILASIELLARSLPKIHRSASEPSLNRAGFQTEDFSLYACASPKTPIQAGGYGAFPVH
T19 sequence (P61075 whole entry): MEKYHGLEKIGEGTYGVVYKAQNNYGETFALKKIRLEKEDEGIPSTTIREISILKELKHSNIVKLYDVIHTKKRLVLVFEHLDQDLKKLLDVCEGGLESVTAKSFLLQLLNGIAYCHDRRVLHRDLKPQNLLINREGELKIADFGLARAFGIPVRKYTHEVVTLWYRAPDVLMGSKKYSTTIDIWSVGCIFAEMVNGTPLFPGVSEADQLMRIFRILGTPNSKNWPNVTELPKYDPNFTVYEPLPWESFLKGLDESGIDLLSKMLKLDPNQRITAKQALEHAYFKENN

SMILES: CCc1ccc2c(c1)C1(NN=C(c3ccccc3)S1)C(=O)N2 (centres unmarked) [OGM2]
- acidification-increased matrix invasion [1]: attenuated
- expression of ATF4, CHAC1, HMOX1, TFRC, SLC7A11 [2]: induced key markers of ferroptosis

SMILES: CCc1ccc2c(c1)C1(NN=C(c3cccc4ccccc34)S1)C(=O)N2 (centres unmarked) [OGM1, 5-ethyl-5′-naphthalen-1-ylspiro[1H-indole-3,2′-3H-1,3,4-thiadiazole]-2-one]
- remaining binding at 10 µM (PRKCH): 100%
- remaining binding at 10 µM (PLK3): 100%
- remaining binding at 10 µM (MEK1): 84%
- remaining binding at 10 µM (RIPK1): 100%
- Agonism (GPR14): 16.8*
- remaining binding at 10 µM (S6K1): 93%
- remaining binding at 10 µM (GCN2(Kin.Dom.2, S808G)): 100%
- remaining binding at 10 µM (CDK7): 64%
- remaining binding at 10 µM (FGR): 100%
- Antagonism (XCR1; 10 uM): 1.8
- Agonism (XCR1; 12.5 uM): 0.1
- remaining binding at 10 µM (TXK): 99%
- Antagonism (A1; 10 uM): −13.9
- Agonism (A1; 12.5 uM): 0.1
- Antagonism (OPRD1; 10 uM): 7.4
- Agonism (OPRD1; 12.5 uM): −0.1
- remaining binding at 10 µM (CDK9): 98%
- Antagonism (FPR2; 10 uM): 23
- Agonism (FPR2; 12.5 uM): −0.4
- remaining binding at 10 µM [3]: 80%
- Antagonism (PK1; 10 uM): −8
- Agonism (PK1; 12.5 uM): 0.2
- Antagonism (ADRA2A; 10 uM): −5.1
- Agonism (ADRA2A; 12.5 uM): 0.1
- Antagonism (ADRA1B; 10 uM): 1
- Agonism (ADRA1B; 12.5 uM): 0.1
- remaining binding at 10 µM (PFPK5(P. falciparum)): 82%
- remaining binding at 10 µM (BRAF): 96%
- remaining binding at 10 µM (EPHB6): 76%
- remaining binding at 10 µM (YANK2): 100%
